The subject of assay [1] is CD4 and CD8 T cells from human peripheral blood. In words: T cell activation in PBMC, flow cytometry with TriMAP/FlowSOM. In kind it is cell-based. The note with it: 10^-7 M, 24 h, anti-CD3 and anti-CD28, compared to ethanol treated cells. On the procedure: Human peripheral blood mononuclear cells (PBMC) from two healthy individuals were obtained from a pre-existing respository. Their use was approved by the University of Alabama at Birmingham Institutional Review Board (Human Subject Assurance Number FWA00005960) as an exempt protocol #4 (Dr C. Raman, P.I.). […] Informed consent is waived in accord with 45CFR46.116 (d). In 48 well plates, 0.5×10^6 PBMC/well were cultured in RPMI1640 containing, 5% charcoal adsorbed FBS and antibiotics and T cells were activated using […] anti-CD3 (clone 145-2C11) and 1 μg/ml anti-CD28 (clone 37.51) for 24 h (Janjetovic Z, et. al., (2021) Endocrinology 162(1), Chaiprasongsuk A, et. al., (2020) Free Radic Biol Med 155 87-98, Slominski A T, et. al., (2011) Am J Physiol Cell Physiol 300(3) C526-41, McGuire D J, et. al., (2014) Eur J Immunol 44(4) 1137-42, Sestero C M, et. al., (2012) J Immunol 189(6) 2918-30). The culture was treated with 10^-7 M 20S(OH)D3, 20S,25(OH)2D3, 20S,23S(OH)2D3, 20S,23R(OH)2D3 or 1α,25(OH)2D3 (Sigma-Aldrich, St. Louis, MO, USA) dissolved in ethanol and diluted in culture medium at the same time of addition of anti-CD3 and anti-CD28. The vehicle control comprised of 0.1% ethanol. At the end of assay the cells were stained with antibodies to CD4 (clone RPA-T4, BV-421), CD19 (clone HB19, BV-510), CD14 (clone HCD14, Alexa 700), CD137 (clone 4B4-1, BV605), CD8a (clone RPA-T8, FITC), ICOS (clone C398.4A, PE/Dazzle), PD1 (clone NAT105, PE), CD80 (clone 2D10, PerCP/Cy5.5), OX40 (clone ACT35, PE/Cy7), CD69 (clone FN50, APC), HLA-DR (clone L243, APC/Fire 750). All antibodies were from Biolegend except anti-CD8 was from Thermo Fisher. The stained cells were analyzed using a CytoFLEX (Beckman Coulter) flow cytometer.
For unbiased analysis of the multidimensional data, acomputational algorithm-based approaches was utilized (Quintelier K, et. al., (2021) Nature Protocols 16(8) 3775-3801). The flow cytometry standard (FCS) data files from each individual and treatment (two individuals, six treatments including ethanol, a total of 12 data files) were processed through the following workflow—compensation, gating on live cells, gating for single cells and subtraction of CD19+(B cells) and CD14+(monocytes). B cells and monocytes were removed from the analysis because only T cells (CD4+ and CD8+) are activated by anti-CD3 and anti-CD28. After these initial gating steps, a key word was added to each of the 12 FCS files, down sampled to 50,000 events/sample and concatenated. Down sampling ascertains that each sample is equally weighted, and concatenation ascertains that statistical analysis is applied equally. The concatenated files were first subjected to TriMAP analysis, a computational algorithm that clusters populations based on triplet relatedness followed by FlowSOM algorithm-based clustering (Quintelier K, et. al., (2021) Nature Protocols 16(8) 3775-3801). To perform these analyses, plugins within FlowJo (BD, CA, USA) were used.
T cells in peripheral blood from two healthy individuals were activated with anti-CD3 and anti-CD28 in the absence (ethanol) or presence of 10^−7 M of each of the vitamin D3 secosteroids for 24 h. The cells were stained for lineage markers (CD4, CD8, CD19, CD14) and a panel of activation induced markers (CD69, ICOS, OX40, CD137, PD1, HLADR) and expression data were collected using a flow cytometer. The gating strategy was live, single cell followed by CD4 and CD8 T cell populations. […]

Assay [2] deals with CYP24A1 (downstream target of the activated VDR). Briefly: CYP24A1 expression, qPCR of downstream enzymes. It is filed as cell-based. The following applies: FIG. 8C. On the procedure: RNA isolation and reverse transcription were performed as described previously (Slominski A T, et. al., (2021) Sci Rep 11(1) 8002). Quantitative RT-PCR was carried out using Sybr green Master Mix (Thermo Scientific, Waltham, MA), in triplicates as previously described (Slominski A T, et. al., (2021) Sci Rep 11(1) 8002; Janjetovic Z, et. al., (2014) J Pineal Res 57(1) 90-102). Human epidermal keratinocytes (HEKn) isolated from foreskin of white neonates were cultured until the third passage before treatment as described in the literature (Chaiprasongsuk A, et. al., (2019) Redox Biol 24 101206; Janjetovic Z, et. al., (2009) PloS one 4(6) e5988). Cells were treated with vitamin D3 derivatives for 8 h or 24 h and harvested for RNA isolation. Approximately 300 ng of RNA was used for cDNA synthesis and an equal amount of cDNA was used for PCR reactions. Cyclophilin B or GAPDH was used as an internal control. Primers sequences are listed in (Chaiprasongsuk A, et. al., (2020) Free Radic Biol Med 155 87-9845, Slominski A T, et. al., (2017) Sci Rep 7(1) 11434). Reactions were done in triplicate.
To better define the properties of the newly synthesized secosteroids, their activities on the VDR, AhR and LXR were tested by performing functional assays which were further validated by qPCR of downstream enzymes (FIGS. 8A-F) and molecular modeling (FIG. 9-13). Binding affinities of top-scored docking complexes of vitamin D3 hydroxy derivatives with VDR, AhR, LXRs (LXRα, LXRβ) and RORs (RORα, RORγ) from molecular docking are presented in FIG. 9, known ligands for each receptor were used as controls.
Background: Quantitative PCR measures a nucleic acid by following its amplification.

We go through four compounds from patent publication US20240327320A1, “NOVEL ROUTES OF CHEMICAL SYNTHESIS OF 20S(OH)D3, 20S,25(OH)2D3, 20S,23S(OH)2D3, AND 20S,23R(OH)2D3 AND THEIR MODIFICATION OF THE IMMUNE ACTIVITY OF PBMCS” (United State Government as represen ted by the Department …, priority 2023, published 2024).

`C=C1CC[C@H](O)C/C1=C/C=C1\CCC[C@@]2(C)[C@H]1CC[C@@H]2[C@@](C)(O)CCCC(C)C` [20S(OH)D3, (20S)-20-Hydroxyvitamin D3]: the “CD4 T cells of population 4 (down modulated CD4, increased CD69 and ICOS)” value in assay [1] is on record as “increased the proportion of cells with population 4 phenotype”.
For `C=C1CC[C@H](O)C/C1=C/C=C1\CCC[C@@]2(C)[C@H]1CC[C@@H]2[C@@](C)(O)C[C@H](O)CC(C)C` [20S,23R(OH)2D3, (20S,23R)-20,23-Dihydroxyvitamin D3], the CYP24A1 expression result in assay [2] is reported as “significantly less expression than 1α,25(OH)2D3”.
For the compound `C=C1CC[C@H](O)C/C1=C/C=C1\CCC[C@@]2(C)[C@H]1CC[C@@H]2[C@@](C)(O)C[C@@H](O)CC(C)C` [20S,23S(OH)2D3, (20S,23S)-20,23-Dihydroxyvitamin D3], the “CD4 T cells of population 4 (down modulated CD4, increased CD69 and ICOS)” value in assay [1] was “fewer cells”. In assay [2], the CYP24A1 expression entry is recorded as “significantly less expression than 1α,25(OH)2D3”.
Regarding `C=C1CC[C@H](O)C/C1=C/C=C1\CCC[C@@]2(C)[C@H]1CC[C@@H]2[C@@](C)(O)CCCC(C)(C)O` [20S,25(OH)2D3, (20S)-20,25-Dihydroxyvitamin D3], the “CD4 T cells of population 4 (down modulated CD4, increased CD69 and ICOS)” value in assay [1] was “fewer cells”. Besides, in assay [2], the CYP24A1 expression entry is on record as “much greater stimulation of CYP24A1 expression than 20S(OH)D3”.
